This is an account of results in patent USRE44599E1, “Quinazolinones as inhibitors of human phosphatidylinositol 3-kinase delta” (ICOS Corporation, priority 2004, dated 2013).

Assay [1] relates to neutrophil. The note with it: cited from earlier work.
In the next assay the test system is osteoclasts. As to the kind of experiment: Osteoclast function (pit depths on dentine slices). The class given is cell-based, mouse. The note with it: PI3K inhibitors 100 nM, 72 hr. The protocol: To analyze the effect of the present PI3Kδ inhibitor compounds on osteoclasts, mouse bone marrow cells are isolated and differentiated to osteoclasts by treating the cells with Macrophage Colony Stimulating Factor^−1 (mCSF^−1) and Osteoprotegerin Ligand (OPGL) in serum-containing medium (αMEM with 10% heat-inactivated FBS; Sigma) for 3 days. On day four, when the osteoclasts had developed, the medium is removed and cells are harvested. The osteoclasts are plated on dentine slices at 10^5 cells/well in growth medium, i.e., αMEM containing 1% serum and 2% BSA with […] OPGL and 10 ng/mL mCSF^−1. After 3 hr, the medium is changed to 1% serum and 1% BSA, with or without osteopontin (25 μg/mL) and the PI3K inhibitors (100 nM). The medium is changed every 24 hours with fresh osteopontin and the inhibitors. At 72 hr, the medium is removed, and the dentine surfaces are washed with water to remove cell debris and stained with acid hematoxylin. Excess stain is washed and the pit depths are quantitated using confocal microscopy.

Assay [2] relates to neutrophil. The note with it: cited from earlier work. The source holds these as a separate data set.
The test system of the next assay is Class I PI 3-kinases. Conditions: read-out: IC50 against each of the various Class I PI 3-kinases; cited from earlier work.

Turning to `O=c1cc(N2CCOCC2)oc2c(-c3ccccc3)cccc12` [LY294002], in the assay on neutrophil [1], the superoxide release result was “block neutrophil migration and superoxide release”. Also, in the assay with osteoclasts, the osteoclast activity entry was “inhibited osteoclast activity”. For the same molecule, in the assay on neutrophil [2], the neutrophil migration result is given as “block neutrophil migration”.

For `COC[C@H]1OC(=O)c2coc3c2[C@@]1(C)C1=C(C3=O)[C@@H]2CCC(=O)[C@@]2(C)C[C@H]1OC(C)=O` [wortmannin], the superoxide release result with neutrophil [1] was “block neutrophil migration and superoxide release”. In the assay with osteoclasts, the osteoclast activity entry was “inhibited osteoclast activity”. Moreover, the IC50 with Class I PI 3-kinases was 1 to 10 nM. In addition, the neutrophil migration entry in the assay on neutrophil [2] is “block neutrophil migration”.

The IC50 is the point on the concentration scale where inhibition reaches its midpoint.
